In the experiment the test system is HIV. As to the kind of experiment: Anti-HIV activity in cell culture: inhibition of HIV replication, virus in supernatant quantified by reinfection of human fetal lung cells. Type of experiment: cell-based. The note with it: Human immunodeficiency virus 1; chronically HIV-infected human fetal lung cells; concentration causing 50 % inhibition of virus replication. From the text:
Die Verbindungen der vorliegenden Erfindung weisen eine antivirale Wirksamkeit auf und können somit beispielsweise zur Behandlung von HIV-bedingten Krankheiten oder Infektionen eingesetzt werden. Der Nachweis der Anti-HIV-Wirksamkeit erfolgt in Zell- oder Gewebekulturen, wobei die direkte Hemmung der HIV-Replikation gemessen wird.
Zunächst erfolgt eine Behandlung von HIV-infizierten humanen T-Lymphomzellen bzw. HIV-infizierten humanen fetalen Lungenzellen mit der zu untersuchenden Verbindung in Verdünnungsreihe. Anschließend erfolgt eine Quantifizierung der Virusmenge im Überstand durch Neuinfektion von humanen fetalen Lungenzellen. Die Abnahme der entstandenen HIV-positiven Zellkolonien gilt als direktes Maß für die antivirale Wirksamkeit der untersuchten Verbindung.
In der folgenden Tabelle sind diejenigen Konzentrationen angegeben, die eine 50 %-ige Hemmung der Virusreplikation bewirken (IC₅₀-Werte).

SMILES strings stand for the structures. Values after ≈ are worked out from the molar mass of the structure shown.

The text below walks through data of EP0506704B1, “USE OF ALKYL PHOSPHOLIPIDS AS ANTIVIRAL DRUGS, AS WELL AS NEW COMPOUNDS” (BOEHRINGER MANNHEIM GMBH, priority 1989, dated 1991).

The term IC50 denotes the concentration that inhibits the measured activity by half.

As for `CCCCCCCCCCCCOC(CCCCCCCCCCCC)COP(=O)([O-])OCC[N+](C)(C)C` (stereo not drawn) [Beispiel 2, 2-Dodecyloxytetradecvl-1-phosphorsäure-monocholinester], half-maximal inhibition (IC50) required 1 mg/L (≈ 1.77 µM).

`CCCCCCCCCCCCSCC(CCCCCCCCCCC)COP(=O)([O-])OCC[N+](C)(C)C` (stereo not drawn) [Beispiel 3, 2-Dodecylmercaptomethyl-tridecyl-1-phosphorsäure-monocholinester] displayed an IC50 of 12 mg/L (≈ 20.7 µM).

`CCCCCCCCCCCCSC(CCCCCCCCCCCC)COP(=O)([O-])OCC[N+](C)(C)C` (stereo not drawn) [Beispiel 1, 2-Dodecylmercapto-tetradecyl-1-phosphorsäure-monocholinester]: the midpoint of inhibition, the IC50, lay at 30 mg/L (≈ 51.7 µM).
